One test has as its target T1, AuroraA-TPX2 (Homo sapiens, UniProt O14965).
T1 construct: 20 μL of AuroraA-TPX2 KD GST for a final volume of about 41 μL; GST
T1 sequence (O14965 133-383 limits assumed): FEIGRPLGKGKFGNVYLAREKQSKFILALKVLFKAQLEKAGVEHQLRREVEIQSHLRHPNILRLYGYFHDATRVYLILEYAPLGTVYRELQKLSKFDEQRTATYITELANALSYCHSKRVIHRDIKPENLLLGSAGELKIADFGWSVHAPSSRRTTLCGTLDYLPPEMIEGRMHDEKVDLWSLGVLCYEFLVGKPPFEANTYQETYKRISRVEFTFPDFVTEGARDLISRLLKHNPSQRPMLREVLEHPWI
T1 sequence (Q9ULW0 1-43 partner limits assumed): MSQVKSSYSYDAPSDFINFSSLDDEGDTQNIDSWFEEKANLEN
Kind of test: AuroraA-TPX2 Homogeneous Time Resolved Fluorescent (HTRF) kinase assay. The class given is biochemical. The following applies: average; read-out: AurA_IC50_IP (uM Avg). The essentials:
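HTRF read-out (Eu 615 nm to APC 655 nm) of phosphorylated biotin-PLK, detected with 0.02 nM europium anti-phosphoPLK antibody and 0.0005 mg/mL SA-APC after overnight equilibration.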
In general terms: TR-FRET usually uses a lanthanide donor and a delayed reading to cut background.

Another test concerns the target T2, AuroraB (Homo sapiens, UniProt Q96GD4).
T2 construct: 20 μL of AuroraB FL H is for a final volume of 41 μL; His
Kind of test: AuroraB Homogeneous Time Resolved Fluorescent (HTRF) kinase assay. The class given is biochemical. The conditions noted are these: average; read-out: AurB_IC50_IP (uM Avg). The essentials: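 Full-length His-tagged kinase phosphorylates biotinylated Histone H3 (0.1 μM final) with ATP in pH 7.5 HEPES containing MgCl, MnCl, DTT and BSA for about 90 min. EDTA-containing detection mix with SA-APC and Eu-anti-phosphoHistone H3 then equilibrated about 60 min; HTRF read with 320 nm excitation, emissions 615/655 nm.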

Structures are written as SMILES.

T2 sequence (Q96GD4 whole entry): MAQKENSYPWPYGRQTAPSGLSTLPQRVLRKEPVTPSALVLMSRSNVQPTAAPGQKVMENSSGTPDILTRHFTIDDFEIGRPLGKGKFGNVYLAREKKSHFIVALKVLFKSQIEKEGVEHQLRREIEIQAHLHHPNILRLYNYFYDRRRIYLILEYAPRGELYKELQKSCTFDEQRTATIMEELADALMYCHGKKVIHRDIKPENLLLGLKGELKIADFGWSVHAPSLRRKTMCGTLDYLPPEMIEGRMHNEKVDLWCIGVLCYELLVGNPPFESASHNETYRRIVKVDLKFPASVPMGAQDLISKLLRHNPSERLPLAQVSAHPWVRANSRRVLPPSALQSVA

As to `CCCc1cc(-c2ccccc2)nnc1Nc1ccc(Oc2ccnc3cc(C#N)ccc23)cc1` [compound 196, 4-((4-((6-phenyl-4-propyl-3-pyridazinyl)amino)phenyl)oxy)-7-quinolinecarbonitrile], the results for the IC50 on AuroraA-TPX2 and at AuroraB were 0.672 µM and 0.006 µM, respectively.
For `COc1cnc2c(Oc3ccc(Nc4nnc(-c5ccc(N6CCCCC6)cc5)c5ccccc45)cc3)ccnc2c1` [compound 198, N-(4-((7-(methyloxy)-1,5-naphthyridin-4-yl)oxy)phenyl)-4-(4-(1-piperidinyl)phenyl)-1-phthalazinamine] the same measures were 0.128 µM and 0.004 µM.
For `CCc1cc(-c2ccc(C)cc2)nnc1Nc1ccc(Oc2ccnc3cc(OC)cnc23)cc1` [compound 199, 4-ethyl-N-(4-((7-(methyloxy)-1,5-naphthyridin-4-yl)oxy)phenyl)-6-(4-methylphenyl)-3-pyridazinamine] the same measures were 0.027 µM and 0.002 µM.
Turning to `COc1cnc2c(Oc3ccc(Nc4nnc(-c5ncco5)c5ccccc45)cc3)ccnc2c1` [compound 200, N-(4-((7-(methyloxy)-1,5-naphthyridin-4-yl)oxy)phenyl)-4-(1,3-oxazol-2-yl)-1-phthalazinamine], the IC50 on AuroraA-TPX2 came out at 0.087 µM; on AuroraB, 0.003 µM.
`COc1cnc2c(Oc3ccc(Nc4nnc(-c5ccc(Cl)c(Cl)c5)c5ccccc45)cc3)ccnc2c1` [compound 201, 4-(3,4-dichlorophenyl)-N-(4-((7-(methyloxy)-1,5-naphthyridin-4-yl)oxy)phenyl)-1-phthalazinamine]: the figures for the IC50 at AuroraA-TPX2 and at AuroraB were 0.035 µM and 0.006 µM, respectively.
As to `Cn1cncc1-c1cc2nccc(Oc3ccc(Nc4nnc(-c5ccccc5)c5ccccc45)cc3)c2s1` [compound 202, N-(4-((2-(1-methyl-1H-imidazol-5-yl)thieno[3,2-b]pyridin-7-yl)oxy)phenyl)-4-phenyl-1-phthalazinamine], the IC50 on AuroraA-TPX2 came to 0.02 µM; at AuroraB, 0.002 µM.
Regarding `Cc1ccc(-c2nnc(Nc3ccc(Oc4ccnc5cc(-c6cncn6C)sc45)cc3)c3ccccc23)cc1` [compound 203, N-(4-((2-(1-methyl-1H-imidazol-5-yl)thieno[3,2-b]pyridin-7-yl)oxy)phenyl)-4-(4-methylphenyl)-1-phthalazinamine], the IC50 on AuroraA-TPX2 was determined as 0.008 µM; at AuroraB, 0.002 µM.
As to `COc1cnc2c(Oc3ccc(Nc4nnc(-c5ccc6c(ccn6C)c5)c5ccccc45)cc3)ccnc2c1` [compound 204, 4-(1-methyl-1H-indol-5-yl)-N-(4-((7-(methyloxy)-1,5-naphthyridin-4-yl)oxy)phenyl)-1-phthalazinamine], the IC50 at AuroraA-TPX2 was 0.026 µM; at AuroraB it was 0.003 µM.
For `CCc1cc(-c2ccc(C)s2)nnc1Nc1ccc(Oc2ccnc3cc(OC)cnc23)cc1` [compound 205, 4-ethyl-N-(4-((7-(methyloxy)-1,5-naphthyridin-4-yl)oxy)phenyl)-6-(5-methyl-2-thienyl)-3-pyridazinamine], the values for the IC50 at AuroraA-TPX2 and on AuroraB were 0.06 µM and 0.004 µM, respectively.
In the case of `COc1cnc2c(Oc3ccc(Nc4nnc(-c5ccc6cc[nH]c6c5)c5ccccc45)cc3)ccnc2c1` [compound 206, 4-(1H-indol-6-yl)-N-(4-(7-methoxy-1,5-naphthyridin-4-yloxy)phenyl)phthalazin-1-amine], the IC50 on AuroraA-TPX2 was determined as 0.017 µM; at AuroraB it was 0.003 µM.
Turning to `N#Cc1ccc2c(Sc3ccc(Nc4nnc(-c5ccccc5)c5ccccc45)cc3)ccnc2c1` [compound 208, 4-((4-((4-phenyl-1-phthalazinyl)amino)phenyl)thio)-7-quinolinecarbonitrile], the IC50 on AuroraA-TPX2 came out at 0.18 µM; on AuroraB it was 0.007 µM.
For `COc1cnc2c(Oc3ccc(Nc4nnc(-c5ccc(C)c(N)c5)c5ccccc45)cc3)ccnc2c1` [compound 209, 4-(3-amino-4-methylphenyl)-N-(4-((7-(methyloxy)-1,5-naphthyridin-4-yl)oxy)phenyl)-1-phthalazinamine], the IC50 at AuroraA-TPX2 is 0.012 µM; at AuroraB, 0.001 µM.
For the compound `CCc1cc(-c2cc(C)cs2)nnc1Nc1ccc(Oc2ccnc3cc(OC)cnc23)cc1` [compound 210, 4-ethyl-N-(4-((7-(methyloxy)-1,5-naphthyridin-4-yl)oxy)phenyl)-6-(4-methyl-2-thienyl)-3-pyridazinamine], the figures for the IC50 on AuroraA-TPX2 and on AuroraB were 0.031 µM and 0.002 µM, respectively.
With `COc1cc2nccc(Oc3ccc(Nc4nnc(-c5ccc(C)cc5)c5ccccc45)cc3)c2cc1C(N)=O` [compound 211, 7-(methyloxy)-4-((4-((4-(4-methylphenyl)-1-phthalazinyl)amino)phenyl)oxy)-6-quinolinecarboxamide], the IC50 at AuroraA-TPX2 worked out at 0.006 µM; on AuroraB, 0.001 µM.
For the compound `COc1cnc2c(Oc3ccc(Nc4nnc(-c5cn[nH]c5)c5ccccc45)cc3)ccnc2c1` [compound 212, N-(4-((7-(methyloxy)-1,5-naphthyridin-4-yl)oxy)phenyl)-4-(1H-pyrazol-4-yl)-1-phthalazinamine], the IC50 is 0.478 µM at AuroraA-TPX2 and 0.018 µM at AuroraB.
For `COc1cnc2c(Oc3ccc(Nc4nnc(-c5ccc(OC)c(C)c5)c5ccccc45)cc3)ccnc2c1` [compound 213, 4-(3-methyl-4-(methyloxy)phenyl)-N-(4-((7-(methyloxy)-1,5-naphthyridin-4-yl)oxy)phenyl)-1-phthalazinamine] the same measures were 0.079 µM and 0.011 µM.
On to `COc1cnc2c(Oc3ccc(Nc4nnc(-c5ccc(F)c(F)c5)c5ccccc45)cc3)ccnc2c1` [compound 214, 4-(3,4-difluorophenyl)-N-(4-((7-(methyloxy)-1,5-naphthyridin-4-yl)oxy)phenyl)-1-phthalazinamine], for which the IC50 at AuroraA-TPX2 was determined as 0.085 µM; on AuroraB, 0.007 µM.
Regarding `COc1cnc2c(Oc3ccc(Nc4nnc(-c5cncnc5)c5ccccc45)cc3)ccnc2c1` [compound 215, N-(4-((7-(methyloxy)-1,5-naphthyridin-4-yl)oxy)phenyl)-4-(5-pyrimidinyl)-1-phthalazinamine], the IC50 turned out to be 0.743 µM on AuroraA-TPX2 and 0.024 µM on AuroraB.
For the compound `COc1cnc2c(Oc3ccc(Nc4nnc(-c5cnn(C)c5)c5ccccc45)cc3)ccnc2c1` [compound 216, N-(4-((7-(methyloxy)-1,5-naphthyridin-4-yl)oxy)phenyl)-4-(1-methyl-1H-pyrazol-4-yl)-1-phthalazinamine], the IC50 came to 0.16 µM on AuroraA-TPX2 and 0.006 µM on AuroraB.
As to `N#Cc1ccc(-c2nnc(Nc3ccc(Oc4ccnc5cc(C#N)ccc45)cc3)c3ccccc23)cc1` [compound 217, 4-((4-((4-(4-cyanophenyl)-1-phthalazinyl)amino)phenyl)oxy)-7-quinolinecarbonitrile], the IC50 is 0.454 µM at AuroraA-TPX2 and 0.016 µM at AuroraB.
As to `COc1cnc2c(Oc3ccc(Nc4nnc(-c5ccccc5)c5ccsc45)cc3)ccnc2c1` [compound 218, N-(4-((7-(methyloxy)-1,5-naphthyridin-4-yl)oxy)phenyl)-4-phenylthieno[2,3-d]pyridazin-7-amine], the IC50 at AuroraA-TPX2 was found to be 0.027 µM; at AuroraB, 0.003 µM.
Turning to `COc1cnc2c(Oc3ccc(Nc4nnc(-c5cccc(Cl)c5)c5ccccc45)cc3)ccnc2c1` [compound 219, 4-(3-chlorophenyl)-N-(4-((7-(methyloxy)-1,5-naphthyridin-4-yl)oxy)phenyl)-1-phthalazinamine], the IC50 was 0.051 µM on AuroraA-TPX2 and 0.01 µM on AuroraB.
For `COc1cnc2c(Oc3ccc(Nc4nnc(-c5ccc(F)cc5)c5ccccc45)cc3)ccnc2c1` [compound 220, 4-(4-fluorophenyl)-N-(4-((7-(methyloxy)-1,5-naphthyridin-4-yl)oxy)phenyl)-1-phthalazinamine] the same measures were 0.047 µM and 0.004 µM.
For `CCc1ccc(-c2nnc(Nc3ccc(Oc4ccnc5cc(OC)cnc45)cc3)c3ccccc23)cc1` [compound 221, 4-(4-ethylphenyl)-N-(4-((7-(methyloxy)-1,5-naphthyridin-4-yl)oxy)phenyl)-1-phthalazinamine], the IC50 at AuroraA-TPX2 was found to be 0.026 µM; on AuroraB it was 0.007 µM.
For `COc1cnc2c(Oc3ccc(Nc4nnc(-c5ccc(Cl)cc5)c5ccccc45)cn3)ccnc2c1` [compound 222, 4-(4-chlorophenyl)-N-(6-((7-(methyloxy)-1,5-naphthyridin-4-yl)oxy)-3-pyridinyl)-1-phthalazinamine] the same measures were 0.047 µM and 0.006 µM.
As to `COc1cnc2c(Oc3ccc(Nc4nnc(-c5ccnn5C)c5ccccc45)cc3)ccnc2c1` [compound 223, N-(4-((7-(methyloxy)-1,5-naphthyridin-4-yl)oxy)phenyl)-4-(1-methyl-1H-pyrazol-5-yl)-1-phthalazinamine], the IC50 came out at 1.33 µM on AuroraA-TPX2 and 0.039 µM on AuroraB.
In the case of `COc1cnc2c(Oc3ccc(Nc4nnc(-c5ccc(C)c(Cl)c5)c5ccccc45)cc3)ccnc2c1` [compound 224, 4-(3-chloro-4-methylphenyl)-N-(4-((7-(methyloxy)-1,5-naphthyridin-4-yl)oxy)phenyl)-1-phthalazinamine], the IC50 is 0.034 µM on AuroraA-TPX2 and 0.011 µM at AuroraB.

These data come from patent publication US8557816B2, “Aurora kinase modulators and method of use” (Amgen Inc., priority 2007, dated 2013).
